{
  "source": "the supplement of paper PMC10307832",
  "assay_in_all_cases": "relative viability (nuclei count vs DMSO), 5 days (fraction); higher = more cells survive",
  "key": {"[1]": {"compound": "COc1cc(Nc2c(C#N)cnc3cc(OCCCN4CCN(C)CC4)c(OC)cc23)c(Cl)cc1Cl [Bosutinib]", "method_in_brief": "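Five library-drug doses spaced by √10 were pinned onto vehicle-anchored 1536-well plates of lung cancer cell lines that had been kept overnight at 37 °C. Cells went 5 days without medium change, then were fixed, permeabilised and Hoechst-stained together, imaged at 4× and counted by MetaXpress. Viability is the ratio of treated-well to vehicle-well nuclei, taken as a median over plates. Plates required control CV below 25% and at least one doubling.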"}, "[2]": {"compound": "COc1cc(Nc2c(C#N)cnc3cc(OCCCN4CCN(C)CC4)c(OC)cc23)c(Cl)cc1Cl [Bosutinib] + O=C(c1cc(Cc2n[nH]c(=O)c3ccccc23)ccc1F)N1CCN(C(=O)C2CC2)CC1 [Olaparib] (partner 8 µM)", "method_in_brief": "(§1)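 Each reported value is a median over duplicate plates. It expresses relative viability: treated-well nuclei count divided by vehicle-well nuclei count. Lung cancer cell lines in 1536-well plates were dosed by pin tool a day after seeding, alone with one drug or with a fixed anchor-drug dose plus five library-drug doses (not always all listed) in √10 steps, and nuclei were counted after 5 days.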"}, "[3]": {"compound": "COc1cc(Nc2c(C#N)cnc3cc(OCCCN4CCN(C)CC4)c(OC)cc23)c(Cl)cc1Cl [Bosutinib] + CS(=O)(=O)N1CCN(Cc2cc3nc(-c4cccc5[nH]ncc45)nc(N4CCOCC4)c3s2)CC1 [Pictilisib] (partner 1 µM)", "method_in_brief": "as §1"}, "[4]": {"compound": "COc1cc(Nc2c(C#N)cnc3cc(OCCCN4CCN(C)CC4)c(OC)cc23)c(Cl)cc1Cl [Bosutinib] + COc1cc2c(Oc3ccc(NC(=O)C4(C(=O)Nc5ccc(F)cc5)CC4)cc3F)ccnc2cc1OCCCN1CCOCC1 [Foretinib] (partner 0.25 µM)", "method_in_brief": "as §1"}, "[5]": {"compound": "COc1cc(Nc2c(C#N)cnc3cc(OCCCN4CCN(C)CC4)c(OC)cc23)c(Cl)cc1Cl [Bosutinib] + CC1(C)CCC(c2ccc(Cl)cc2)=C(CN2CCN(c3ccc(C(=O)NS(=O)(=O)c4ccc(N[C@H](CCN5CCOCC5)CSc5ccccc5)c(S(=O)(=O)C(F)(F)F)c4)cc3)CC2)C1 [Navitoclax] (partner 0.5 µM)", "method_in_brief": "as §1"}, "[6]": {"compound": "COc1cc(Nc2c(C#N)cnc3cc(OCCCN4CCN(C)CC4)c(OC)cc23)c(Cl)cc1Cl [Bosutinib] + CS(=O)(=O)CCNCc1ccc(-c2ccc3ncnc(Nc4ccc(OCc5cccc(F)c5)c(Cl)c4)c3c2)o1 [Lapatinib] (partner 2 µM)", "method_in_brief": "as §1"}, "[7]": {"compound": "COc1cc(Nc2c(C#N)cnc3cc(OCCCN4CCN(C)CC4)c(OC)cc23)c(Cl)cc1Cl [Bosutinib] + Cc1nc(NC(=O)N2CCC[C@H]2C(N)=O)sc1-c1ccnc(C(C)(C)C(F)(F)F)c1 [Alpelisib] (partner 2 µM)", "method_in_brief": "as §1"}, "[8]": {"compound": "COc1cc(Nc2c(C#N)cnc3cc(OCCCN4CCN(C)CC4)c(OC)cc23)c(Cl)cc1Cl [Bosutinib] + C[C@]1(O)C[C@@H](c2nc(-c3ccc4ccc(-c5ccccc5)nc4c3)c3c(N)nccn32)C1 [Linsitinib] (partner 1 µM)", "method_in_brief": "as §1"}, "[9]": {"compound": "COc1cc(Nc2c(C#N)cnc3cc(OCCCN4CCN(C)CC4)c(OC)cc23)c(Cl)cc1Cl [Bosutinib] + CC(C)C[C@H](NC(=O)[C@H](Cc1ccccc1)NC(=O)c1cnccn1)B(O)O [Bortezomib] (partner 0.002 µM)", "method_in_brief": "as §1"}, "[10]": {"compound": "COc1cc(Nc2c(C#N)cnc3cc(OCCCN4CCN(C)CC4)c(OC)cc23)c(Cl)cc1Cl [Bosutinib] + C[C@@H](Oc1cc(-c2cnn(C3CCNCC3)c2)cnc1N)c1c(Cl)ccc(F)c1Cl [Crizotinib] (partner 1 µM)", "method_in_brief": "as §1"}},
  "data": [
    {"cell line": "NCI-H1299", "values": [
      {"measurement": "relative viability", "setting": "[1]; 0.01 µM", "result": 1.01},
      {"measurement": "relative viability", "setting": "[1]; 0.03162 µM", "result": 1.01},
      {"measurement": "relative viability", "setting": "[1]; 0.1 µM", "result": 1.03},
      {"measurement": "relative viability", "setting": "[1]; 1 µM", "result": 1.02},
      {"measurement": "relative viability", "setting": "[2]; first compound 0.01 µM", "result": 1},
      {"measurement": "relative viability", "setting": "[2]; first compound 0.03162 µM", "result": 0.982},
      {"measurement": "relative viability", "setting": "[2]; first compound 0.1 µM", "result": 0.994},
      {"measurement": "relative viability", "setting": "[2]; first compound 1 µM", "result": 0.96},
      {"measurement": "relative viability", "setting": "[3]; first compound 0.01 µM", "result": 0.777},
      {"measurement": "relative viability", "setting": "[3]; first compound 0.03162 µM", "result": 0.989},
      {"measurement": "relative viability", "setting": "[3]; first compound 0.1 µM", "result": 0.858},
      {"measurement": "relative viability", "setting": "[3]; first compound 1 µM", "result": 0.515},
      {"measurement": "relative viability", "setting": "[4]; first compound 0.01 µM", "result": 1.16},
      {"measurement": "relative viability", "setting": "[4]; first compound 0.03162 µM", "result": 1.14},
      {"measurement": "relative viability", "setting": "[4]; first compound 0.1 µM", "result": 1.13},
      {"measurement": "relative viability", "setting": "[4]; first compound 1 µM", "result": 0.989},
      {"measurement": "relative viability", "setting": "[5]; first compound 0.01 µM", "result": 1.05},
      {"measurement": "relative viability", "setting": "[5]; first compound 0.03162 µM", "result": 1.06},
      {"measurement": "relative viability", "setting": "[5]; first compound 0.1 µM", "result": 0.995},
      {"measurement": "relative viability", "setting": "[5]; first compound 1 µM", "result": 1.03},
      {"measurement": "relative viability", "setting": "[6]; first compound 0.01 µM", "result": 0.969},
      {"measurement": "relative viability", "setting": "[6]; first compound 0.03162 µM", "result": 0.99},
      {"measurement": "relative viability", "setting": "[6]; first compound 0.1 µM", "result": 0.903},
      {"measurement": "relative viability", "setting": "[6]; first compound 1 µM", "result": 0.916},
      {"measurement": "relative viability", "setting": "[7]; first compound 0.01 µM", "result": 1.05},
      {"measurement": "relative viability", "setting": "[7]; first compound 0.03162 µM", "result": 1.03},
      {"measurement": "relative viability", "setting": "[7]; first compound 0.1 µM", "result": 1.05},
      {"measurement": "relative viability", "setting": "[7]; first compound 1 µM", "result": 1.2},
      {"measurement": "relative viability", "setting": "[8]; first compound 0.01 µM", "result": 1.05},
      {"measurement": "relative viability", "setting": "[8]; first compound 0.03162 µM", "result": 0.983},
      {"measurement": "relative viability", "setting": "[8]; first compound 0.1 µM", "result": 1.07},
      {"measurement": "relative viability", "setting": "[8]; first compound 1 µM", "result": 0.92},
      {"measurement": "relative viability", "setting": "[9]; first compound 0.01 µM", "result": 1},
      {"measurement": "relative viability", "setting": "[9]; first compound 0.03162 µM", "result": 1.06},
      {"measurement": "relative viability", "setting": "[9]; first compound 0.1 µM", "result": 1.01},
      {"measurement": "relative viability", "setting": "[9]; first compound 1 µM", "result": 1},
      {"measurement": "relative viability", "setting": "[10]; first compound 0.01 µM", "result": 0.947},
      {"measurement": "relative viability", "setting": "[10]; first compound 0.03162 µM", "result": 1},
      {"measurement": "relative viability", "setting": "[10]; first compound 0.1 µM", "result": 0.965},
      {"measurement": "relative viability", "setting": "[10]; first compound 1 µM", "result": 0.942}
    ]}
  ]
}
